Measurements as given in US20230028441A1, “NOVEL HETEROARYL-TRIAZOLE COMPOUNDS AS PESTICIDES” (Bayer Aktiengesellschaft, priority 2019, published 2023).

Tests used:
Assay type in all cases: in vivo
[1] = test system: green peach aphid (Myzus persicae); experiment: Myzus persicae oral test; conditions: 120 h
Description: Solvent: 100 parts by weight acetone
To produce a suitable preparation of active compound, 1 part by weight of active compound is mixed with the stated amount of solvent, and the concentrate is diluted with water to the desired concentration.
50 μL compound solution is filled in microtiter plates and 150 μL IPL41 insect medium (33%+15% sugar) is added to obtain a total volume of 200 μL per well. Afterwards the plates are sealed with parafilm through which a mixed population of the green peach aphid (Myzus persicae) can suck on the compound preparation.
After 5 days mortality in % is determined. 100% means all aphids have been killed and 0% means none of the aphids have been killed.

[2] = test system: adult engorged female ticks (Rhipicephalus microplus); experiment: Rhipicephalus (Boophilus) microplus injection test; conditions: 168 h, egg deposition after 7 days, read-out: efficacy (infertile eggs); for pest or weed control at 0.004 mg: 4 μg/animal; for pest or weed control at 0.02 mg: 20 μg/animal
Description: (§1) Solvent: dimethyl sulfoxide
To produce a suitable preparation of active compound, 10 mg of active compound are dissolved in 0.5 mL solvent, and the concentrate is diluted with solvent to the desired concentration.
Five adult engorged female ticks (Rhipicephalus microplus) are injected with 1 μL compound solution into the abdomen. The ticks are transferred into replica plates and incubated in a climate chamber.
After 7 days egg deposition of fertile eggs is monitored. Eggs where fertility is not visible are stored in a climate chamber till hatching after about 42 days. An efficacy of 100% means all eggs are infertile; 0% means all eggs are fertile.

[3] = test system: larvae of the southern green stink bug (Nezara viridula); experiment: Nezara viridula spray test; conditions: in Hordeum vulgare, 96 h
Description: (§2) Solvent: 78.0 parts by weight of acetone • • 1.5 parts by weight of dimethylformamide
(§3) Emulsifier: alkylarylpolyglycol ether
(§4) To produce a suitable preparation of active compound, 1 part by weight of active compound is mixed with the stated amount of solvent, and the concentrate is diluted with water, containing an emulsifier concentration of 1000 ppm, to the desired concentration. Further test concentrations are prepared by dilution with emulsifier containing water.
Barley plants (Hordeum vulgare) infested with larvae of the southern green stink bug (Nezara viridula) are sprayed with a test solution containing the desired concentration of the active ingredient.
After 4 days mortality in % is determined. 100% means all the stink bugs have been killed; 0% means none of the stink bugs have been killed.

[4] = test system: adult unfed cat fleas (Ctenocephalides felis); experiment: Ctenocephalides felis oral test; conditions: 48 h, 100 ppm in cattle blood, after 2 days
Description: as §1
To produce a suitable preparation of active compound, 10 mg of active compound are dissolved in 0.5 mL solvent, and the concentrate is diluted with cattle blood to the desired concentration.
Approximately 20 adult unfed cat fleas (Ctenocephalides felis) are placed in flea chambers. The blood chamber, sealed with parafilm on the bottom, are filled with cattle blood supplied with compound solution and placed on the gauze covered top of the flea chamber, so that the fleas are able to suck the blood. The blood chamber is heated to 37° C. whereas the flea chamber is kept at room temperature.
After 2 days mortality in % is determined. 100% means all the fleas have been killed; 0% means none of the fleas have been killed.

[5] = test system: larvae of the banded cucumber beetle (Diabrotica balteata); experiment: Diabrotica balteata spray test; conditions: 168 h, 100 g/ha (=32 μg/well), after 7 days, wheat seeds, read-out: efficacy (seedlings grown up)
Description: as §2, §3, §4
Soaked wheat seeds (Triticum aestivum) are placed in a multiple well plate filled with agar and some water and are incubated for 1 day to germinate (5 seeds per well). The germinated wheat seeds are sprayed with a test solution containing the desired concentration of the active ingredient. Afterwards each unit is infected with 10-20 larvae of the banded cucumber beetle (Diabrotica balteata).
After 7 days efficacy in % is determined. 100% means all the seedlings have grown up like in the untreated, uninfected control; 0% means none of the seedlings have grown.

[6] = test system: fall armyworm larvae (Spodoptera frugiperda); experiment: Spodoptera frugiperda spray test (maize leaf sections); conditions: 168 h
Description: Solvent: 78.0 parts by weight acetone • 1.5 parts by weight dimethylformamide
as §3
as §4, with “solvents” for “solvent,”, “and” for “and the concentrate”
Maize (Zea mays) leaf sections are sprayed with a preparation of the active ingredient of the desired concentration. Once dry, the leaf sections are infested with fall armyworm larvae (Spodoptera frugiperda).
After 7 days mortality in % is determined. 100% means all caterpillars have been killed and 0% means none of the caterpillars have been killed.

[7] = test system: cattle tick larvae (Rhipicephalus microplus), strain Parkhurst, resistant against synthetic pyrethroids; experiment: Rhipicephalus (Boophilus) microplus in-vitro contact test, larval cattle tick; conditions: 5 μg/cm^2 (=500 g/ha), after 48 hours, read-out: efficacy (larvae dead or moribund)
Description: (§5) 9 mg compound is solved in 1 mL acetone and diluted with acetone to the desired concentration. 250 μL of the test solution is filled in 25 mL glass test tubes and homogeneously distributed on the inner walls by rotation and tilting on a shaking device (2 h at 30 rpm). With a compound concentration of 900 ppm, an inner surface of 44.7 cm^2 and a homogeneous distribution, a dose of 5 μg/cm^2 is achieved.
After the solvent has evaporated, each test tube is filled with 20-50 cattle tick larvae (Rhipicephalus microplus), closed with a perforated lid and incubated in a horizontal position at 85% relative humidity and 27° C. in an incubator. After 48 hours efficacy is determined. The larvae are patted on the ground of the tubes and negative geotactic behaviour is recorded.
An efficacy of 100% means all larvae are dead or moribund; 0% means no larvae are dead or moribund.

[8] = test system: adult brown dog ticks (Rhipicephalus sanguineus); experiment: Rhipicephalus sanguineus in-vitro contact test with adult brown dog ticks; conditions: after 48 hours, read-out: efficacy (ticks dead or moribund); for pest or weed control at 5 µg/cm2, 500 g/ha: 5 μg/cm^2 (=500 g/ha); for pest or weed control at 1 µg/cm2, 100 g/ha: 1 μg/cm^2 (=100 g/ha)
Description: as §5
After the solvent has evaporated, each test tube is filled with 5-10 adult brown dog ticks (Rhipicephalus sanguineus), closed with a perforated lid and incubated in a lying position at room temperature and relative humidity. After 48 hours efficacy is determined. The ticks are patted on the ground of the tubes and are incubated on a heating plate at 45-50° C. for at most 5 minutes. Immotile or uncoordinated moving ticks, which are not able to escape the heat by climbing upwards, are marked as dead or moribund.
An efficacy of 100% means all ticks are dead or moribund; 0% means no ticks are dead or moribund.

| Structure (SMILES) | mortality at 4 ppm [1] | pest or weed control at 0.004 mg [2] | pest or weed control at 0.02 mg [2] | mortality at 100 g/ha [3] | mortality at 500 g/ha [3] | mortality at 100 ppm [4] | pest or weed control at 32 µg/disc, 100 g/ha [5] | mortality at 500 g/ha [6] | mortality at 100 g/ha [6] | pest or weed control at 5 µg/cm2 [7] | pest or weed control at 5 µg/cm2, 500 g/ha [8] | pest or weed control at 1 µg/cm2, 100 g/ha [8] |
| --- | --- | --- | --- | --- | --- | --- | --- | --- | --- | --- | --- | --- |
| CC(NC(=O)c1cc(Cl)cc(S(C)(=O)=O)c1)c1nc(NS(C)(=O)=O)nn1-c1ccc(Cl)cn1 (racemic) [I-025, 3-chloro-N-[1-[2-(5-chloro-2-pyridyl)-5-(methanesulfonamido)-1,2,4-triazol-3-yl]ethyl]-5-methylsulfonyl-benzamide] | 90% |  |  |  |  |  |  |  |  |  |  |  |
| CC(NC(=O)c1cc(Cl)cc(S(C)(=O)=O)c1)c1nc(S(C)(=O)=O)nn1-c1ccc(Cl)cn1 (racemic) [I-060, 3-chloro-N-[1-[2-(5-chloro-2-pyridyl)-5-methylsulfonyl-1,2,4-triazol-3-yl]ethyl]-5-methylsulfonyl-benzamide] | 100% | 100% | 100% | 100% | 100% |  |  |  |  |  |  |  |
| CC(NC(=O)c1cc(Cl)cc(C(F)(F)F)c1)c1nc(C(N)=O)nn1-c1ncccn1 (single isomer, unassigned) [I-074, 5-[1-[[3-chloro-5-(trifluoromethyl)benzoyl]amino]ethyl]-1-pyrimidin-2-yl-1,2,4-triazole-3-carboxamide] | 100% | 100% |  | 100% |  | 100% |  |  |  |  |  |  |
| CC(NC(=O)c1cc(Cl)cc(C(F)(F)F)c1)c1nc(C#N)nn1-c1ncccn1 (single isomer, unassigned) [I-080, 3-chloro-N-[1-(5-cyano-2-pyrimidin-2-yl-1,2,4-triazol-3-yl)ethyl]-5-(trifluoromethyl)benzamide] | 90% | 100% |  |  |  | 100% | 100% |  |  |  |  |  |
| CC(NC(=O)c1cc(Cl)cc(S(C)(=O)=O)c1)c1nc(N)nn1-c1ccc(Cl)cn1 (stereo not drawn) [I-005] | 90% | 100% | 100% |  |  | 100% |  |  |  |  |  |  |
| CC(=O)Nc1nc(C(C)NC(=O)c2cc(Cl)cc(S(C)(=O)=O)c2)n(-c2ccc(Cl)cn2)n1 (stereo not drawn) [I-017] | 100% | 100% | 100% | 90% | 100% | 100% |  | 100% |  |  |  |  |
| CC(Cl)C(=O)Nc1nc(C(C)NC(=O)c2cc(Cl)cc(S(C)(=O)=O)c2)n(-c2ncccn2)n1 (stereo not drawn) [I-019] | 90% | 100% |  | 90% |  | 100% |  |  |  |  |  |  |
| CC(NC(=O)c1cc(Cl)cc(S(C)(=O)=O)c1)c1nc(NC(=O)C2(Cl)CC2)nn1-c1ncccn1 (stereo not drawn) [I-020] | 90% | 100% |  |  |  | 100% |  |  |  |  |  |  |
| CC(NC(=O)c1cc(Cl)cc(C(F)(F)F)c1)c1nc(NC(=O)C2CC2)nn1-c1ncccn1 (stereo not drawn) [I-023] | 100% |  |  | 90% |  |  | 100% |  | 100% |  |  |  |
| CC(NC(=O)c1cc(Cl)cc(C(F)(F)F)c1)c1nc(NC(=O)[C@@H]2C[C@@H]2F)nn1-c1ncccn1 (stereo partly drawn) [I-024] | 100% |  |  |  |  |  | 100% |  | 100% |  |  |  |
| CC(NC(=O)c1cc(Cl)cc(S(C)(=O)=O)c1)c1nc(CS(C)(=O)=O)nn1-c1ccc(Cl)cn1 (stereo not drawn) [I-027, 3-chloro-N-[1-[2-(5-chloro-2-pyridyl)-5-(methylsulfonylmethyl)-1,2,4-triazol-3-yl]ethyl]-5-methylsulfonyl-benzamide] | 100% | 80% | 100% | 100% | 100% | 100% |  |  |  | 90% |  |  |
| CC(NC(=O)c1cc(Cl)cc(S(C)(=O)=O)c1)c1nc(-c2cnccn2)nn1-c1ncccn1 (stereo not drawn) [I-045] | 90% | 100% | 100% |  |  | 100% |  |  |  |  | 80% |  |
| CC(NC(=O)c1cncc(C(F)(F)F)c1)c1nc(-c2ncccn2)nn1-c1ncccn1 (stereo not drawn) [I-053] | 90% |  |  |  |  | 100% |  |  |  |  |  |  |
| CC(NC(=O)c1cc(Cl)cc(S(C)(=O)=O)c1)c1nc(-c2ccco2)nn1-c1ncccn1 (stereo not drawn) [I-057] | 100% | 80% | 100% |  |  | 100% |  |  |  |  |  |  |
| CNC(=O)c1nc(C(C)NC(=O)c2cc(Cl)cc(C(F)(F)F)c2)n(-c2ccc(C#N)cn2)n1 (stereo not drawn) [I-079] | 100% | 100% | 100% |  |  | 100% |  |  | 100% | 100% |  |  |
| CC(NC(=O)c1cc(Br)cc(C(F)(F)F)c1)c1nc(N)nn1-c1ncccn1 (stereo not drawn) [I-093] | 100% | 100% |  |  |  | 90% |  |  | 83% | 100% |  | 80% |
| CC(NC(=O)c1cc(Br)cc(Br)c1)c1nc(N)nn1-c1ncccn1 (stereo not drawn) [I-094] | 100% |  |  |  |  |  |  |  | 100% |  |  |  |
| CC(NC(=O)c1cc(Cl)cc(Br)c1)c1nc(N)nn1-c1ncccn1 (stereo not drawn) [I-108] | 100% |  |  |  |  |  | 100% |  | 100% | 90% |  |  |
| CNc1nc([C@H](C)NC(=O)c2cc(C(F)(F)F)cc(C(F)(F)F)c2)n(-c2ncc(C(=O)N3CCOCC3)s2)n1 [I-126, N-[(1S)-1-[5-(methylamino)-2-[5-(morpholine-4-carbonyl)thiazol-2-yl]-1,2,4-triazol-3-yl]ethyl]-3,5-bis(trifluoromethyl)benzamide] |  |  |  |  | 100% |  | 100% |  | 100% |  | 80% |  |
| CC(NC(=O)c1cc(Cl)cc(C(C)(C)C#N)c1)c1nc(N2CCOCC2)nn1-c1ccc(C#N)cn1 (stereo not drawn) [I-159] |  |  |  |  | 90% |  | 100% |  | 100% | 100% |  | 100% |
